For one molecule, EC50 results are on record in PMC9445041, “Development of a red fluorescent protein-based cGMP indicator applicable for live-cell imaging” (Communications Biology, 2022).

In the assay the target is T1, Red cGull (Mus musculus, UniProt Q8CG03).
T1 construct: gene Pde5a; N-terminal mouse APP fragment (aa 190-286) fused for bacterial expression; purified on Ni-NTA from E. coli JM109(DE3)
The assay is described as follows: fluorescence intensity dose-response, four-parameter logistic fit. The assay is classed as binding.

T1 sequence (Q8CG03 164-298): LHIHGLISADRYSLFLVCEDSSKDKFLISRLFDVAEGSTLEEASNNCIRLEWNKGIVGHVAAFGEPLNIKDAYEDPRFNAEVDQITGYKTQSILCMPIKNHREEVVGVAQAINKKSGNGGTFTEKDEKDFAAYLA

The EC50 is the concentration giving half of the maximal effect. Regarding `Nc1nc2c(ncn2[C@@H]2O[C@@H]3COP(=O)(O)O[C@H]3[C@H]2O)c(=O)[nH]1` [cGMP], a half-maximal effect (EC50) was put at 330 nM.
